Laboratory results taken from publication PMC12549899 (Nature Communications, 2025).
Changes are numbered by the printed parent chain. Where “and” joins values, the source holds several entries; their conditions need not be identical. Equal values may be shown once.

How the values were obtained:
DrOTOP1 L205W = molecular target: T1, DrOTOP1 L205W (Danio rerio, UniProt Q7ZWK8, L205W); assay: Whole-cell patch-clamp, inhibition of acid-evoked currents, DrOTOP1 L205W; type: cell-based, zebrafish (Danio rerio); settings: single cells or mean; for Inhibition of currents: 10 µM
T1 construct: A previously generated codon-optimized full-length DrOTOP1[8]; (UniProt: Q7ZWK8) construct; expressed in transfected cells; host or cells: HEK-293 (CRL-1573, ATCC)
T1 sequence (Q7ZWK8 1-586 L205W): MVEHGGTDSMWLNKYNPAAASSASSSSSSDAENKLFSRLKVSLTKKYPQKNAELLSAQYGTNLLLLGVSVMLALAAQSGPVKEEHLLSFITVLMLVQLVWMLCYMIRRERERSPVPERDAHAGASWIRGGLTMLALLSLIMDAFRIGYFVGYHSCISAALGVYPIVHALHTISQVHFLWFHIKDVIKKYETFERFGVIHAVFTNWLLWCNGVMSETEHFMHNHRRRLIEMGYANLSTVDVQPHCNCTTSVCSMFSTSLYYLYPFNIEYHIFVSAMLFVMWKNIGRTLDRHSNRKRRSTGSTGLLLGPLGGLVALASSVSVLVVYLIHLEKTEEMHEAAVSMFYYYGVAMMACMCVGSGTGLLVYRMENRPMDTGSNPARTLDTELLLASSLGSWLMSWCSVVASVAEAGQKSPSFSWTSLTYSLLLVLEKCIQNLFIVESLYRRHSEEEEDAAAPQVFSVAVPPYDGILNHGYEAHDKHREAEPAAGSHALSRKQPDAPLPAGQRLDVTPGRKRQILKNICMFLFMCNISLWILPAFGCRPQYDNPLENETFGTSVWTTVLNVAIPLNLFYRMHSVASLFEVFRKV
Source text: (§1) To functionally test the significance of the two binding sites identified by cryo-EM, we generated point mutations of DrOTOP1 using the binding poses and conformational changes observed in DrOTOP1_C2.2 to guide our mutations. As per the binding pose that best fits our cryo-EM density, C2.2 forms the following interactions in the outer site: hydrophobic packing against many non-polar residues W126, G130, M133, L134, F271, F570, and M573, and π-stacking with W532 (Fig. 5A). In addition, C2.2 could potentially form H-bonds with E267, if the sidechain is protonated or a water bridge is present, and with H574 if it moves closer (Fig. 5A). Likewise, C2.36 presents a heterocyclic nitrogen that can potentially form a H-bond with E267, similarly, provided a protonation or water bridge is present (Fig. 5B). In addition, C2.36 forms a T-shaped π-stacking interaction with H574, whose sidechain has rotated 90 degrees (compared to DrOTOP1_apo), presumably to accommodate the interaction (Fig. 5B). Considering other inhibitors discovered from the second round of screening, many contain functional groups like the carbonyl groups of Group 1 molecules and the heterocyclic nitrogen atoms of Group 2 molecules (Supplementary Fig. 3E), that can potentially form similar H-bonds with E267 as C2.2 and C2.36, assuming the binding modes are similar. In the central site, C2.2 binds with the following interactions: hydrophobic packing with residues V201, F271, A274, V278, and A388, π-stacking with F277, and H-bonding with E384 (Fig. 5C).
We next tested mutations of the central site (L205W, A274W, F277A, E384A L385W, A388W). V201W and S389W, two additional central site mutations, were excluded from the study due to complete loss of channel activity. […]
(§2) Whole-cell patch-clamp recording was performed as previously described[6],[22],[25]. Recordings were made with an Axopatch 200B amplifier, digitized with a Digidata 1322a 16-bit data acquisition system, acquired with pClamp 8.2 and analyzed with Clampfit 10 (Molecular Devices). […]

DrOTOP1 A388W = molecular target: T2, DrOTOP1 A388W (Danio rerio, UniProt Q7ZWK8, A388W); assay: Whole-cell patch-clamp, inhibition of acid-evoked currents, DrOTOP1 A388W; type: cell-based, zebrafish (Danio rerio); settings: single cells
T2 construct: A previously generated codon-optimized full-length DrOTOP1[8]; (UniProt: Q7ZWK8) construct; expressed in transfected cells; host or cells: HEK-293 (CRL-1573, ATCC)
T2 sequence (Q7ZWK8 1-586 A388W): T1 sequence (Q7ZWK8 1-586 L205W) with W205L, A388W
Source text: as §1, with “Considering other inhibitors discovered from the second round of screening, many contain functional groups like the carbonyl groups of Group 1 molecules and the heterocyclic nitrogen atoms of Group 2 molecules (Supplementary Fig. 3E), that can potentially form similar H-bonds with E267 as C2.2 and C2.36, assuming the binding modes are similar. In the central site, C2.2 binds with the following interactions: hydrophobic packing with residues V201, F271, A274, V278, and A388, π-stacking with F277, and H-bonding with E384 (Fig. 5C).” left out
as §2

SMILES | Inhibition of currents (DrOTOP1 L205W; mean) [%] | Inhibition of currents (DrOTOP1 L205W; single cells) | inhibition at 10 µM (DrOTOP1 L205W) [%] | Inhibition of currents (DrOTOP1 A388W; 100 µM) | inhibition at 100 µM (DrOTOP1 A388W) [%]
C=C(C)COc1ccccc1NC(=O)c1nc[nH]c1C [C2.2] | 69.03 | 76.6896% and 67.1049% and 68.1116% and 69.0311% | 64.2 |  | 
O=C(/C(=N\O)c1ccccc1)c1ccccc1 [C11, benzil monoxime] |  |  |  | 53.4353% and 72.6918% and 53.0458% and 57.2816% and 61.0959% | 72.4
